The values below come from patent US20050026911A1, “Benzotriazapinone salts and methods for using same” (priority 2003, published 2005).

The test deals with T1, gastrin (CCK2) receptors (Rattus norvegicus, UniProt P30553).
T1 construct: The stomach was excised and flushed with ca. 1 ml of unbuffered physiological saline solution; from tissue; host or cells: isolated whole stomach of immature rats (ca. 21 days old)
T1 sequence (P30553 1-452): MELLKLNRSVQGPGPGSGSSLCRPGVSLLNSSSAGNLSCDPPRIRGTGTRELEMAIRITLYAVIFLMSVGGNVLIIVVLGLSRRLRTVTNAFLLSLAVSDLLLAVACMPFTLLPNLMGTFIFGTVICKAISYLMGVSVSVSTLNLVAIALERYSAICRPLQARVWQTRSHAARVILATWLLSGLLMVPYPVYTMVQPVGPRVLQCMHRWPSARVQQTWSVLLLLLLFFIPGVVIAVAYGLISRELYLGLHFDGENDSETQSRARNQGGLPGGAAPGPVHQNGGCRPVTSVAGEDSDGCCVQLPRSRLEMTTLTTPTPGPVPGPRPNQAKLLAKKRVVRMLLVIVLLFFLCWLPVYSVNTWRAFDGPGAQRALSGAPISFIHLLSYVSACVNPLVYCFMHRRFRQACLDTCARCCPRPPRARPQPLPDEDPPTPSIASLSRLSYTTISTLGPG
The test is described as follows: gastrin (CCK2) antagonist activity in an immature rat stomach assay. Conditions: pentagastrin dose-response curves, acid secretion, read-out: pKB rat stomach (converted). The gist of the method: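 Pentagastrin dose-response curves were run cumulatively 60 min after drug went into the serosal bath, itself after 120 min stabilisation. Preparation: perfused stomach from rats ca. 21 days old (33-50 g), with unbuffered saline under 100% O2 at 1 ml min^−1 and perfusate pH monitored.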

Consider `CC(C)(C)C(=O)CN1C(=O)N(CC(=O)Nc2ccc3c(ccn3CC(=O)O)c2)N=C(C2CCCCC2)c2ccccc21` [Example 117, (5-{2-[5-Cyclohexyl-1-(3,3-dimethyl-2-oxo-butyl)-2-oxo-1,2-dihydro-3H-1,3,4-benzotriazepin-3-yl]-acetylamino}-indol-1-yl)-acetic acid], for which the Kb was 27.5 nM.
The value for `O=C(O)Cc1cccc(NC(=O)CN2N=C(C3CCCCC3)c3ccccc3N(CC(=O)C3CC3)C2=O)c1` [Example 119] was 24.5 nM; that for `O=C(O)CSc1cccc(NC(=O)CN2N=C(C3CCCCC3)c3ccccc3N(CC(=O)C3CC3)C2=O)c1` [Example 120, [3-(2-{5-Cyclohexyl-1-(2-cyclopropyl-2-oxo-ethyl)-2-oxo-1,2-dihydro-3H-1,3,4-benzotriazepin-3-yl]-acetylamino}-phenylsulfanyl)-acetic acid] was 37.2 nM; that for `CC(C)(C)C(=O)CN1C(=O)N(CC(=O)Nc2cccc(N3CCOCC3)c2)N=C(C2CCCCC2)c2ccccc21` [Example 123, 2-[5-Cyclohexyl-1-(3,3-dimethyl-2-oxo-butyl)-2-oxo-1,2-dihydro-3H-1,3,4-benzotriazepin-3-yl]-N-(3-morpholin-4-yl-phenyl)-acetamide] was 18.2 nM.
Turning to `CN(c1cccc(NC(=O)CN2N=C(C3CCCCC3)c3ccccc3N(CC(=O)C3CCCC3)C2=O)c1)c1nnn[nH]1` [Example 124, 2-[5-Cyclohexyl-1-(2-cyclopentyl-2-oxo-ethyl)-2-oxo-1,2-dihydro-3H-1,3,4-benzotriazepin-3-yl]-N-(3-[methyl-(2H-tetrazol-5-yl)-amino]-phenyl)-acetamide], the Kb is 2.14 nM.
With `O=C(CN1N=C(C2CCCCC2)c2ccccc2N(CC(=O)C2CCCC2)C1=O)Nc1cccc(-c2nnn[nH]2)c1` [Example 125, 2-[5-Cyclohexyl-1-(2-cyclopentyl-2-oxo-ethyl)-2-oxo-1,2-dihydro-3H-1,3,4-benzotriazepin-3-yl]-N-[3-(2H-tetrazol-5-yl)-phenyl]-acetamide] the figure was 4.37 nM; with `O=C(O)Cn1ccc2ccc(NC(=O)CN3N=C(C4CCCCC4)c4ccccc4N(CC(=O)C4CCCC4)C3=O)cc21` [Example 126, (6-{2-[5-Cyclohexyl-1-(2-cyclopentyl-2-oxo-ethyl)-2-oxo-1,2-dihydro-3H-1,3,4-benzotriazepin-3-yl]-acetylamino}-indol-1-yl)-acetic acid], 0.0575 nM.
As to `CC(C)(C)C(=O)CN1C(=O)N(CC(=O)Nc2cccc3c2ccn3CC(=O)O)N=C(C2CCCCC2)c2ccccc21` [Example 127, (4-{2-[5-Cyclohexyl-1-(3,3-dimethyl-2-oxo-butyl)-2-oxo-1,2-dihydro-3H-1,3,4-benzotriazepin-3-yl]-acetylamino}-indol-1-yl)-acetic acid], the Kb is 2.09 nM.
Take `CC(C)(C)C(=O)CN1C(=O)N(CC(=O)Nc2cccc3c2cnn3CC(=O)O)N=C(C2CCCCC2)c2ccccc21` [Example 130, (4-{2-[5-Cyclohexyl-1-(3,3-dimethyl-2-oxo-butyl)-2-oxo-1,2-dihydro-3H-1,3,4-benzotriazepin-3-yl]-acetylamino}-indazol-1-yl)-acetic acid]: the Kb is 44.7 nM.
Consider `CC(C)(C)C(=O)CN1C(=O)N(CC(=O)Nc2ccc3ccn(Cc4nnn[nH]4)c3c2)N=C(C2CCCCC2)c2ccccc21` [Example 131, 2-[5-Cyclohexyl-1-(3,3-dimethyl-2-oxo-butyl)-2-oxo-1,2-dihydro-3H-1,3,4-benzotriazepin-3-yl]-N-[1-(1H-tetrazol-5-ylmethyl)-1H-indol-6-yl]-acetamide], for which the Kb is 1.62 nM.
For `Cc1cccc2c1C(C1CCCCC1)=NN(CC(=O)Nc1cccc(CC(=O)O)c1)C(=O)N2CC(=O)C(C)(C)C` [Example 132, (3-{2-[5-Cyclohexyl-1-(3,3-dimethyl-2-oxo-butyl)-6-methyl-2-oxo-1,2-dihydro-3H-1,3,4-benzotriazepin-3-yl]-acetylamino}-phenyl)-acetic acid], the Kb is 66.1 nM.
On to `CC1(C(=O)CN2C(=O)N(CC(=O)Nc3cccc(CC(=O)O)c3)N=C(C3CCCCC3)c3ccccc32)CCCCC1` [Example 133, [3-(2-{5-Cyclohexyl-1-[2-(1-methyl-cyclohexyl)-2-oxo-ethyl]-2-oxo-1,2-dihydro-3H-1,3,4-benzotriazepin-3-yl}-acetylamino)-phenyl]-acetic acid], for which the Kb is 14.1 nM.
The value for `CC1(C(=O)CN2C(=O)N(CC(=O)Nc3cccc(SCC(=O)O)c3)N=C(C3CCCCC3)c3ccccc32)CCCCC1` [Example 134, [3-(2-{5-Cyclohexyl-1-[2-(1-methyl-cyclohexyl)-2-oxo-ethyl]-2-oxo-1,2-dihydro-3H-1,3,4-benzotriazepin-3-yl}-acetylamino)-phenylsulfanyl]-acetic acid] was 17.4 nM; that for `Cc1nc(-c2cccc(NC(=O)CN3N=C(C4CCCCC4)c4ccccc4N(CC(=O)C4CCCC4)C3=O)c2)cs1` [Example 136, 2-[5-Cyclohexyl-1-(2-cyclopentyl-2-oxo-ethyl)-2-oxo-1,2-dihydro-3H-1,3,4-benzotriazepin-3-yl]-N-[3-(2-methyl-thiazol-4-yl)-phenyl]-acetamide] was 6.03 nM.
Turning to `O=C(CN1N=C(C2CCCCC2)c2ccccc2N(CC(=O)C2CCCC2)C1=O)Nc1cccc(-c2csc(C(=O)O)n2)c1` [Example 137, 4-(3-{2-[5-Cyclohexyl-1-(2-cyclopentyl-2-oxo-ethyl)-2-oxo-1,2-dihydro-3H-1,3,4-benzotriazepin-3-yl]-acetylamino}-phenyl)-thiazole-2-carboxylic acid], the Kb was 2.88 nM.
With `COC(=O)c1coc(-c2cccc(NC(=O)CN3N=C(C4CCCCC4)c4ccccc4N(CC(=O)C(C)(C)C)C3=O)c2)n1` [Example 140, 2-(3-{2-[5-Cyclohexyl-1-(3,3-dimethyl-2-oxo-butyl)-2-oxo-1,2-dihydro-3H-1,3,4-benzotriazepin-3-yl]-acetylamino}-phenyl)-oxazole-4-carboxylic acid methyl ester] the figure was 1.12 nM; with `CC(C)(C)C(=O)CN1C(=O)N(CC(=O)Nc2cccc3nn(CC(=O)O)cc23)N=C(C2CCCCC2)c2ccccc21` [Example 142, (4-{2-[5-Cyclohexyl-1-(3,3-dimethyl-2-oxo-butyl)-2-oxo-1,2-dihydro-3H-1,3,4-benzotriazepin-3-yl]-acetylamino}-indazol-2-yl)-acetic acid], 15.5 nM; with `CNCCN(C)c1cccc(NC(=O)CN2N=C(C3CCCCC3)c3ccccc3N(CC(=O)C(C)(C)C)C2=O)c1` [Example 143, 2-[5-Cyclohexyl-1-(3,3-dimethyl-2-oxo-butyl)-2-oxo-1,2-dihydro-3H-1,3,4-benzotriazepin-3-yl]-N-{3-[methyl-(2-methylamino-ethyl)-amino]-phenyl}-acetamide], 117 nM.
The value for `CC(C)(C)C(=O)CN1C(=O)N(CC(=O)Nc2cccc(-c3nc(C(=O)O)co3)c2)N=C(C2CCCCC2)c2ccccc21` [Example 144, 2-(3-{2-[5-Cyclohexyl-1-(3,3-dimethyl-2-oxo-butyl)-2-oxo-1,2-dihydro-3H-1,3,4-benzotriazepin-3-yl]-acetylamino}-phenyl)-oxazole-4-carboxylic acid] was 4.17 nM; that for `CC(C)(C)C(=O)CN1C(=O)N(CC(=O)Nc2cccc(-c3ccc(C(=O)O)o3)c2)N=C(C2CCCCC2)c2ccccc21` [Example 145, 5-(3-{2-[5-Cyclohexyl-1-(3,3-dimethyl-2-oxo-butyl)-2-oxo-1,2-dihydro-3H-1,3,4-benzotriazepin-3-yl]-acetylamino}-phenyl)-furan-2-carboxylic acid] was 3.39 nM.
For `CC(C)(C)C(=O)CN1C(=O)N(CC(=O)Nc2cccc(-c3ccc(C(=O)O)cc3)c2)N=C(C2CCCCC2)c2ccccc21` [Example 146, 3′-{2-[5-Cyclohexyl-1-(3,3-dimethyl-2-oxo-butyl)-2-oxo-1,2-dihydro-3H-1,3,4-benzotriazepin-3-yl]-acetylamino}-biphenyl-4-carboxylic acid], the Kb was 7.08 nM.
In the case of `CC(C)(C)C(=O)CN1C(=O)N(CC(=O)Nc2cccc(/C=C3\SC(=O)NC3=O)c2)N=C(C2CCCCC2)c2ccccc21` [Example 147, 2-[5-Cyclohexyl-1-(3,3-dimethyl-2-oxo-butyl)-2-oxo-1,2-dihydro-3H-1,3,4-benzotriazepin-3-yl]-N-[3-(2,4-dioxo-thiazolidin-5-ylidenemethyl)-phenyl]-acetamide], the Kb was 8.32 nM.
On to `O=C(CN1N=C(C2CCCCC2)c2ccccc2N(CC(=O)C2CCCC2)C1=O)Nc1cccc(-c2nc(C(=O)O)co2)c1` [Example 148, 2-(3-{2-[5-Cyclohexyl-1-(2-cyclopentyl-2-oxo-ethyl)-2-oxo-1,2-dihydro-3H-1,3,4-benzotriazepin-3-yl]-acetylamino}-phenyl)-oxazole-4-carboxylic acid], for which the Kb is 3.89 nM.
With `O=C(CN1N=C(C2CCCCC2)c2ccccc2N(CC(=O)C2CCCC2)C1=O)Nc1cccc(-c2ccc(C(=O)O)o2)c1` [Example 149] the figure was 1.1 nM; with `CNc1nc(-c2cccc(NC(=O)CN3N=C(C4CCCCC4)c4ccccc4N(CC(=O)C(C)(C)C)C3=O)c2)cs1` [Example 150, 2-[5-Cyclohexyl-1-(3,3-dimethyl-2-oxo-butyl)-2-oxo-1,2-dihydro-3H-1,3,4-benzotriazepin-3-yl]-N-[3-(2-methylamino-thiazol-4-yl)-phenyl]-acetamide], 1.29 nM.
